Experimental data published in patent US10385097B2, “Ether compounds for treatment of medical disorders” (Achillion Pharmaceuticals, Inc., priority 2015, dated 2019).

target: T1, Human Factor D (Homo sapiens, UniProt P00746); assay: Human Factor D Assay; format: biochemical; details: not given
T1 construct: purified from human serum; purchased Complement Technology, Inc; host or cells: human serum (natural protein, not recombinant)
Method: Example 8. Human Factor D Assay
Human Factor D (purified from human serum, Complement Technology, Inc.) at 80 nM final concentration is incubated with test compound at various concentrations for 5 minutes at room temperature in 50 mM Tris, 1M NaCl, pH 7.5. A synthetic substrate Z-L-Lys-SBzl and DTNB (Ellman's reagent) are added to final concentrations of 100 μM each. Absorbance at 405 nm (A405) is recorded at 30 second intervals for 30 minutes using a microplate spectrophotometer. IC50 values are calculated by nonlinear regression of complement Factor D reaction rates as a function of test compound concentration.

T1 sequence (P00746 26-253): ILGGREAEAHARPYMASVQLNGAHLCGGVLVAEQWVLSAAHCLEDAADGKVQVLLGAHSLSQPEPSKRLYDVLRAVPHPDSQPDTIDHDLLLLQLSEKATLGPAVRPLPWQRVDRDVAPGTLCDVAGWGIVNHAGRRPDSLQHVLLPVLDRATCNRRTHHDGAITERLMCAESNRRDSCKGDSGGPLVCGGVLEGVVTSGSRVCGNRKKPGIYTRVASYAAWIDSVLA

Row | SMILES | IC50 [µM]
1 | NC(=O)c1nn(CC(=O)N2C[C@H](F)C[C@H]2C(=O)Nc2cccc(-c3ccccc3Cl)c2F)c2ccc(Oc3cncnc3)cc12 [Compound 31, 1-(2-((2S,4R)-2-((2′-Chloro-2-fluoro-[1,1′-biphenyl]-3-yl)carbamoyl)-4-fluoropyrrolidin-1-yl)-2-oxoethyl)-5-(pyrimidin-5-yloxy)-1H-indazole-3-carboxamide] | < 1

same assay, conditions: Table 1; Human Factor D 80 nM, substrate Z-L-Lys-SBzl; read-out: IC50

Row | SMILES | IC50 [µM]
2 | CC(=O)c1cn(CC(=O)N2C[C@H](F)C[C@H]2C(=O)Nc2cccc(Oc3ccccc3)c2)c2cc(OCP(=O)(O)O)ccc12 [Compound 26, (3-acetyl-1-(2-((2S,4R)-4-fluoro-2-(3-phenoxyphenylcarbamoyl)pyrrolidin-1-yl)-2-oxoethyl)-1H-indol-6-yloxy)methylphosphonic acid] | < 1
3 | CC(=O)c1cn(CC(=O)N2C[C@H](F)C[C@H]2C(=O)Nc2cccc(OC(F)(F)F)c2F)c2cc(OCP(=O)(O)O)ccc12 [Compound 27, (3-acetyl-1-(2-((2S,4R)-4-fluoro-2-(2-fluoro-3-(trifluoromethoxy)phenylcarbamoyl)pyrrolidin-1-yl)-2-oxoethyl)-1H-indol-6-yloxy)methylphosphonic acid] | < 1
4 | CC(C)(C)NS(=O)(=O)COc1ccc2c(C(N)=O)nn(CC(=O)N3C[C@H](F)C[C@H]3C(=O)Nc3cccc(-c4ccccc4Cl)c3F)c2c1 [Compound 28] | < 1
5 | NC(=O)c1nn(CC(=O)N2C[C@H](F)C[C@H]2C(=O)Nc2cccc(-c3ccccc3Cl)c2F)c2cc(OCS(N)(=O)=O)ccc12 [Compound 29] | < 1
6 | CC(=O)c1cn(CC(=O)N2C[C@H](F)C[C@H]2C(=O)NCc2cccc(Cl)c2F)c2cc(Oc3ncccn3)ccc12 [Compound 30, (2S,4R)-1-(2-(3-Acetyl-6-(pyrimidin-2-yloxy)-1H-indol-1-yl)acetyl)-N-(3-chloro-2-fluorobenzyl)-4-fluoropyrrolidine-2-carboxamide] | < 1
7 | CC(=O)c1cn(CC(=O)N2C[C@H](F)C[C@H]2C(=O)Nc2cccc(-c3ccccc3Cl)c2F)c2cc(Oc3ncccn3)ccc12 [Compound 32, (2S,4R)-1-(2-(3-Acetyl-6-(pyrimidin-2-yloxy)-1H-indol-1-yl)acetyl)-N-(2′-chloro-2-fluoro-[1,1′-biphenyl]-3-yl)-4-fluoropyrrolidine-2-carboxamide] | < 1
8 | CC(=O)c1cn(CC(=O)N2C[C@H](F)C[C@H]2C(=O)Nc2cccc(-c3ccccc3Cl)c2F)c2ccc(Oc3ncc(Br)cn3)cc12 [Compound 33, (2S,4R)-1-(2-(3-Acetyl-5-((5-bromopyrimidin-2-yl)oxy)-1H-indol-1-yl)acetyl)-N-(2′-chloro-2-fluoro-[1,1′-biphenyl]-3-yl)-4-fluoropyrrolidine-2-carboxamide] | < 1
9 | CC(=O)c1cn(CC(=O)N2[C@@H]3C[C@@H]3C[C@H]2C(=O)Nc2cccc(-c3ccccc3Cl)c2F)c2ccc(Oc3ncc(Br)cn3)cc12 [Compound 34, (1R,3S,5R)-2-(2-(3-Acetyl-5-((5-bromopyrimidin-2-yl)oxy)-1H-indol-1-yl)acetyl)-N-(2′-chloro-2-fluoro-[1,1′-biphenyl]-3-yl)-2-azabicyclo[3.1.0]hexane-3-carboxamide] | < 1
10 | CC(=O)c1cn(CC(=O)N2C[C@H](F)C[C@H]2C(=O)Nc2cccc(Br)n2)c2ccc(Oc3ncc(Br)cn3)cc12 [Compound 35, (2S,4R)-1-(2-(3-acetyl-5-(5-bromopyrimidin-2-yloxy)-1H-indol-1-yl)acetyl)-N-(6-bromopyridin-2-yl)-4-fluoropyrrolidine-2-carboxamide] | < 1
11 | CC(=O)c1cn(CC(=O)N2C[C@H](F)C[C@H]2C(=O)Nc2cccc(-c3ccccc3Cl)c2F)c2ccc(Oc3cnc(C#N)nc3)cc12 [Compound 36, (2S,4R)-1-(2-(3-acetyl-5-(2-cyanopyrimidin-5-yloxy)-1H-indol-1-yl)acetyl)-N-(2′-chloro-2-fluorobiphenyl-3-yl)-4-fluoropyrrolidine-2-carboxamide] | < 1
